Laboratory results published in patent US20110178015A1, “METHODS OF TREATMENT USING BIASED LIGANDS FOR RECEPTORS SUCH AS THE PTH RECEPTOR” (priority 2007, published 2011).

How the values were obtained:
[1] = biological target: type I PTH/PTH-related peptide receptor (PTH1R), endogenous in primary murine osteoblasts (mouse) (UniProt P41593); assay: cell-based or functional assay
[2] = system: PTH1 receptor; conditions: Gardella 1996; Sneddon 2004; Bisello 2002; cited from earlier work
[3] = biological target: T1, AT1A angiotensin receptor (Rattus norvegicus, UniProt P25095); conditions: cited from earlier work
T1 sequence (P25095 1-359): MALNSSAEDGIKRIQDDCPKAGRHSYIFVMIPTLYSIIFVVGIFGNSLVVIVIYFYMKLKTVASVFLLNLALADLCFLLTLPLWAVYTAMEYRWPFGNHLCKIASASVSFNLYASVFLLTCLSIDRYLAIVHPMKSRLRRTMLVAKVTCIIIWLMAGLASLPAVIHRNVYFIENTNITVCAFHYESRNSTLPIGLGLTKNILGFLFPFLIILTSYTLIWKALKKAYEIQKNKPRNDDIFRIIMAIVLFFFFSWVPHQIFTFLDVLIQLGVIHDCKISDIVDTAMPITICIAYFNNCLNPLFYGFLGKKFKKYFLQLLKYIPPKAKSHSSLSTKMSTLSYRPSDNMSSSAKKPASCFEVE

type I PTH/PTH-related peptide receptor (PTH1R), endogenous in primary murine osteoblasts (mouse), sequence (P41593 27-591): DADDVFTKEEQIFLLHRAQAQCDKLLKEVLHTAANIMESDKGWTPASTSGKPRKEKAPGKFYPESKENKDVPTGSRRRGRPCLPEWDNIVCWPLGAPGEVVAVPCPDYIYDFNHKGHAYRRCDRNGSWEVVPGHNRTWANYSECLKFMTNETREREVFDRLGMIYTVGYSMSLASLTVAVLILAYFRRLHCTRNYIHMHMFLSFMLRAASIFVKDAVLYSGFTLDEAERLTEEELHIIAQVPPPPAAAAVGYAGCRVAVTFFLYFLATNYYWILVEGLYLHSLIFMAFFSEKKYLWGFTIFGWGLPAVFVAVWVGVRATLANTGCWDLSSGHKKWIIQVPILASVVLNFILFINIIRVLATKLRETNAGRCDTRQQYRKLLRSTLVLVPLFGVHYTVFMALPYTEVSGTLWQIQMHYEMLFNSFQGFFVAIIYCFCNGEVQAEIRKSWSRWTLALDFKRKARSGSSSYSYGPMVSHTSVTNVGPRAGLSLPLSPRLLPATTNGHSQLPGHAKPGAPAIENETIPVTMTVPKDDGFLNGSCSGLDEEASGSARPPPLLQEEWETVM

PTH(1-34) (peptide) gave an ERK1/2 phosphorylation in WT primary osteoblasts, 100 nM PTH(1-34), 5 min (fold over basal) [1] of 3.

With “(D-Trp12, Tyr34)-PTH(7-34) (from UniProt P01268 38-65) (peptide)” the ERK1/2 phosphorylation in WT primary osteoblasts, 1 µM PTH-βarr, 5 min (fold over basal) [1] was 3.

In the case of “Trp^l-PTHrP(1-36) (WVSEHQLLHDKGKSIQDLRRRFFLHHLIAEIHTAEI; Parathyroid hormone-related protein; UniProt P12272 37-72, looked up, variant A1W) [PTHrP analog promoting Gs-coupling without β-arrestin recruitment, reference compound]”, the “PTH1 receptor-Gs coupling / cAMP production” value [2] is listed as “promoting Gs-coupling and cAMP production” and the “arrestin-dependent sequestration / β-arrestin recruitment” value [2] is listed as “without inducing β-arrestin recruitment or desensitization”.

In the case of [Sar1,Ile4,Ile8]SII, the “G protein-independent/β-arrestin-dependent signaling to ERK1/2” value [3] is listed as “selectively stimulating G protein-independent/β-arrestin-dependent 7TMR signaling to ERK1/2”.
